EC50 and Emax data for 20 compounds are collected here from patent US11851406B2, “Positive allosteric modulators of the muscarinic acetylcholine receptor M1” (Vanderbilt University, priority 2018, dated 2023).

The target in test [1] is T1, human mAChR M1 (Homo sapiens, UniProt P11229).
T1 sequence (P11229 1-460): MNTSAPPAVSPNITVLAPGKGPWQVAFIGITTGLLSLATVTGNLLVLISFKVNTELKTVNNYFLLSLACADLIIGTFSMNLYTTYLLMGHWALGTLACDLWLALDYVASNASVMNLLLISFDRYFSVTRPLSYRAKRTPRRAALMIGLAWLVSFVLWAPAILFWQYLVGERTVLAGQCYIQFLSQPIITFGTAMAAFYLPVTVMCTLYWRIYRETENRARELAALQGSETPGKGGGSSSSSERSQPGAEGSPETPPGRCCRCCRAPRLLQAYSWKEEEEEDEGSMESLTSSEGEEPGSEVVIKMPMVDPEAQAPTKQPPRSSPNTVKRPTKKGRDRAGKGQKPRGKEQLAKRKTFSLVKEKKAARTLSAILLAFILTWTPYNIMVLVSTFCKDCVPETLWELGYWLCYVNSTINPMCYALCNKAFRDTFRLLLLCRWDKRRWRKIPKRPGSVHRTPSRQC
The test is described as follows: mAChR M1 cell-based functional assay (calcium mobilization), agonist activity upon compound addition alone. Conditions: CHO-K1 cells expressing hM1; for EC50: calcium mobilization upon compound addition, no acetylcholine; for Emax: compound alone, relative to the maximum for acetylcholine. In a few lines:
(§1)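 Calcium mobilization in CHO-K1 cells stably expressing hM1, Fluo-4 loaded; 11-point 1:3 compound series added at 4 s, acetylcholine EC20 at 144 s, kinetic fluorescence ratio at 1 Hz. Agonism: rise on compound alone, Emax relative to acetylcholine maximum; PAM: potentiation of EC20 response; four-parameter logistic fits.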
A general note: Calcium flux is commonly read through the fluorescence of an indicator in the cells.

For test [2], the target named is T1, human mAChR M1. The test is described as follows: mAChR M1 cell-based functional assay (calcium mobilization), PAM activity: increase in the EC20 acetylcholine response. Particulars: CHO-K1 cells expressing hM1; calcium flux (Fluo-4); potentiation of EC20 acetylcholine response. A digest of the protocol:
as §1

Broadly, the EC50 is the concentration that produces a half-maximal response. As a reminder, the Emax is the maximal effect, on the per cent scale that the assay sets. As to `Cn1cc(-c2cc(Cc3ccc(-c4ccn(C)n4)cc3)cc(C(=O)N[C@H]3CCOC[C@@H]3O)n2)cn1` [Compound 39, N-((3R,4S)-3-hydroxytetrahydro-2H-pyran-4-yl)-4-(4-(1-methyl-1H-pyrazol-3-yl)benzyl)-6-(1-methyl-1H-pyrazol-4-yl)picolinamide], in test [1], the concentration for a half-maximal effect (EC50) was greater than 10 µM and the Emax was less than 5%. For the same compound, in test [2], the EC50 was determined as 2.85 µM and the Emax turned out to be 57%.
On to `Cn1cc(-c2cc(Cc3ccc(-c4ccn(C)n4)cc3)cc(C(=O)N[C@H]3CCCC[C@@H]3O)n2)cn1` [Compound 40, N-((1S,2S)-2-hydroxycyclohexyl)-4-(4-(1-methyl-1H-pyrazol-3-yl)benzyl)-6-(1-methyl-1H-pyrazol-4-yl)picolinamide], for which, in test [1], the EC50 was greater than 10 µM and the Emax is less than 5%. In test [2], the EC50 stood at 9.44 µM and the Emax came out at 57%.
On the same counts, the results for `Cc1c(Cc2ccc(-c3ccn(C)n3)cc2)cc(C(=O)N[C@H]2CCCC[C@@H]2O)nc1-n1cccn1` [Compound 41, N-((1S,2S)-2-hydroxycyclohexyl)-5-methyl-4-(4-(1-methyl-1H-pyrazol-3-yl)benzyl)-6-(1H-pyrazol-1-yl)picolinamide] are 7.78 µM, 26%, 0.307 µM and 79%.
Regarding `Cc1c(Cc2ccc(-c3ccn(C)n3)cc2)cc(C(=O)NC2CCOCC2)nc1-n1cccn1` [Compound 42, 5-methyl-4-(4-(1-methyl-1H-pyrazol-3-yl)benzyl)-6-(1H-pyrazol-1-yl)-N-(tetrahydro-2H-pyran-4-yl)picolinamide], in test [1], the EC50 was greater than 10 µM and the Emax is less than 5%. In addition, the Emax in test [2] is 83%.
`Cc1c(Cc2ccc(-c3ccn(C)n3)cc2)cc(C(=O)N[C@H]2CCC[C@@H]2O)nc1-n1cccn1` [Compound 43, N-((1S,2S)-2-hydroxycyclopentyl)-5-methyl-4-(4-(1-methyl-1H-pyrazol-3-yl)benzyl)-6-(1H-pyrazol-1-yl)picolinamide]: in test [1], the EC50 is no less than 10 µM and the Emax was found to be 14%. For the same compound, in test [2], the EC50 came to 1.3 µM and the Emax turned out to be 85%.
On to `Cc1c(Cc2ccc(-c3ccn(C)n3)nc2)cc(C(=O)N[C@H]2CCOC[C@@H]2O)nc1-n1cccn1` [Compound 44, N-((3R,4S)-3-hydroxytetrahydro-2H-pyran-4-yl)-5-methyl-4-((6-(1-methyl-1H-pyrazol-3-yl)pyridin-3-yl)methyl)-6-(1H-pyrazol-1-yl)picolinamide], for which, in test [1], the EC50 was no less than 10 µM and the Emax turned out to be 23%. For the same compound, in test [2], the EC50 turned out to be 1.09 µM and the Emax worked out at 83%.
Consider `Cc1nc(-c2ccc(Cc3cc(C(=O)N[C@H]4CCOC[C@@H]4O)nc(-n4cccn4)c3C)cc2)co1` [Compound 45, N-((3R,4S)-3-hydroxytetrahydro-2H-pyran-4-yl)-5-methyl-4-(4-(2-methyloxazol-4-yl)benzyl)-6-(1H-pyrazol-1-yl)picolinamide], for which the EC50 was greater than 10 µM in test [1] and 0.863 µM in test [2]. In addition, the maximal effect (Emax) in test [1] was 8%; in test [2], 47%.
On to `Cc1c(Cc2ccc(-c3ccn(C)n3)nc2)cc(C(=O)N[C@H]2CCCC[C@@H]2O)nc1-n1cccn1` [Compound 46, N-((1S,2S)-2-hydroxycyclohexyl)-5-methyl-4-((6-(1-methyl-1H-pyrazol-3-yl)pyridin-3-yl)methyl)-6-(1H-pyrazol-1-yl)picolinamide], for which the EC50 was no less than 10 µM in test [1] and 0.881 µM in test [2]. Further, the figures for the Emax in test [1] and in test [2] were 28% and 85%, respectively.
In the case of `Cc1c(Cc2ccc(-c3cnn(C)c3)nc2)cc(C(=O)N[C@H]2CCCC[C@@H]2O)nc1-n1cccn1` [Compound 47, N-((1S,2S)-2-hydroxycyclohexyl)-5-methyl-4-((6-(1-methyl-1H-pyrazol-4-yl)pyridin-3-yl)methyl)-6-(1H-pyrazol-1-yl)picolinamide], in test [1], the EC50 was 9.08 µM and the Emax was 29%. Also, in test [2], the EC50 was 0.675 µM and the Emax was 85%.
In the case of `Cc1nc(-c2ccc(Cc3cc(C(=O)N[C@H]4CCCC[C@@H]4O)nc(-n4cccn4)c3C)cc2)co1` [Compound 48, N-((1S,2S)-2-hydroxycyclohexyl)-5-methyl-4-(4-(2-methyloxazol-4-yl)benzyl)-6-(1H-pyrazol-1-yl)picolinamide], in test [1], the EC50 was determined as 8.59 µM and the Emax was found to be 10%. In test [2], the EC50 came out at 0.832 µM and the maximal response (Emax) turned out to be 59%.
In the case of `Cc1c(Cc2ccc(-c3ccn(C)n3)nc2)cc(C(=O)NC2CCOCC2)nc1-n1cccn1` [Compound 49, 5-methyl-4-((6-(1-methyl-1H-pyrazol-3-yl)pyridin-3-yl)methyl)-6-(1H-pyrazol-1-yl)-N-(tetrahydro-2H-pyran-4-yl)picolinamide], in test [1], the EC50 was greater than 10 µM and the maximal response (Emax) was less than 5%. In test [2], the Emax is 63%.
As for `Cc1c(Cc2ccc(-c3cnn(C)c3)nc2)cc(C(=O)NC2CCOCC2)nc1-n1cccn1` [Compound 50, 5-methyl-4-((6-(1-methyl-1H-pyrazol-4-yl)pyridin-3-yl)methyl)-6-(1H-pyrazol-1-yl)-N-(tetrahydro-2H-pyran-4-yl)picolinamide], in test [1], the EC50 was greater than 10 µM and the Emax was less than 5%. Besides, the Emax in test [2] amounted to 65%.
Regarding `Cc1nc(-c2ccc(Cc3cc(C(=O)NC4CCOCC4)nc(-n4cccn4)c3C)cc2)co1` [Compound 51, 5-methyl-4-(4-(2-methyloxazol-4-yl)benzyl)-6-(1H-pyrazol-1-yl)-N-(tetrahydro-2H-pyran-4-yl)picolinamide], in test [1], the EC50 was greater than 10 µM and the Emax is less than 5%. For the same compound, the Emax in test [2] amounted to 69%.
Consider `Cc1c(Cc2ccc(-c3ccn(C)n3)nc2)cc(C(=O)N[C@H]2CCC[C@@H]2O)nc1-n1cccn1` [Compound 52, N-((1S,2S)-2-hydroxycyclopentyl)-5-methyl-4-((6-(1-methyl-1H-pyrazol-3-yl)pyridin-3-yl)methyl)-6-(1H-pyrazol-1-yl)picolinamide], for which, in test [1], the EC50 was greater than 10 µM and the Emax came to 9%. In test [2], the EC50 was determined as 5.03 µM and the Emax stood at 84%.
Take `Cc1c(Cc2ccc(-c3cnn(C)c3)nc2)cc(C(=O)N[C@H]2CCC[C@@H]2O)nc1-n1cccn1` [Compound 53, N-((1S,2S)-2-hydroxycyclopentyl)-5-methyl-4-((6-(1-methyl-1H-pyrazol-4-yl)pyridin-3-yl)methyl)-6-(1H-pyrazol-1-yl)picolinamide]: in test [1], the EC50 was greater than 10 µM and the Emax is 5%. For the same compound, in test [2], the EC50 worked out at 3.96 µM and the Emax came to 75%.
Consider `Cc1nc(-c2ccc(Cc3cc(C(=O)N[C@H]4CCC[C@@H]4O)nc(-n4cccn4)c3C)cc2)co1` [Compound 54, N-((1S,2S)-2-hydroxycyclopentyl)-5-methyl-4-(4-(2-methyloxazol-4-yl)benzyl)-6-(1H-pyrazol-1-yl)picolinamide], for which, in test [1], the EC50 is greater than 10 µM and the Emax was less than 5%. Besides, in test [2], the EC50 was 3.87 µM and the Emax stood at 52%.
On the same counts, the results for `Cc1c(Cc2ccc(-n3cccn3)cc2)cc(C(=O)N[C@H]2CCOC[C@@H]2O)nc1-c1ccn(C)n1` [Compound 55, 4-(4-(1H-pyrazol-1-yl)benzyl)-N-((3R,4S)-3-hydroxytetrahydro-2H-pyran-4-yl)-5-methyl-6-(1-methyl-1H-pyrazol-3-yl)picolinamide] are 6.7 µM, 22%, 0.324 µM and 77%.
On the same counts, the results for `Cc1c(Cc2ccc(-n3cccn3)cc2)cc(C(=O)N[C@H]2CCCC[C@@H]2O)nc1-c1ccn(C)n1` [Compound 56, 4-(4-(1H-pyrazol-1-yl)benzyl)-N-((1S,2S)-2-hydroxycyclohexyl)-5-methyl-6-(1-methyl-1H-pyrazol-3-yl)picolinamide] are greater than 10 µM, less than 5%, 0.906 µM and 81%.
As to `Cc1c(Cc2ccc(-n3cccn3)cc2)cc(C(=O)NC2CCOCC2)nc1-c1ccn(C)n1` [Compound 57, 4-(4-(1H-pyrazol-1-yl)benzyl)-5-methyl-6-(1-methyl-1H-pyrazol-3-yl)-N-(tetrahydro-2H-pyran-4-yl)picolinamide], the EC50 in test [1] is greater than 10 µM; in test [2] it was 5.7 µM. In addition, the Emax in test [1] was less than 5%; in test [2] it was 81%.
Regarding `Cc1c(Cc2ccc(-n3cccn3)cc2)cc(C(=O)NC2CC3(COC3)C2)nc1-c1ccn(C)n1` [Compound 58, 4-(4-(1H-pyrazol-1-yl)benzyl)-5-methyl-6-(1-methyl-1H-pyrazol-3-yl)-N-(2-oxaspiro[3.3]heptan-6-yl)picolinamide], in test [1], the EC50 is greater than 10 µM and the Emax was less than 5%. Moreover, in test [2], the EC50 came to 6 µM and the Emax is 83%.
